Measured values taken from US7468368B2, “Piperazinylacylpiperidine derivatives, their preparation and therapeutic use thereof” (Sanofi Aventis, priority 2002, dated 2008).
Counter-ions that a name gives are not always drawn.

Row | SMILES | melting point
1 | COc1cccc(C2(CN)CCN(C(=O)CN3CCN(c4cnccn4)CC3)CC2)c1.O=C(O)C(=O)O.O=C(O)C(=O)O | 120 °C
2 | O=C(CN1CCN(c2ccncn2)CC1)N1CC=C(c2cccc(C(F)(F)F)c2)CC1 (as salt: oxalate) [Compound No. 27, 2-[4-(4-Pyrimidinyl)-1-piperazinyl]-1-[4-[3-(trifluoromethyl)phenyl]-3,6-dihydro-1(2H)-pyridyl]-1-ethanone dioxalate] | 160 °C
3 | CC(C)N(C)CC1(c2cccc(C(F)(F)F)c2)CCN(C(=O)CN2CCN(c3cnccn3)CC2)CC1.Cl.Cl.Cl | 185 to 200 °C
4 | NCC1(c2cccc(C(F)(F)F)c2)CCN(C(=O)CN2CCN(c3cnccn3)CC2)CC1 [Compound No. 4, 1-[4-(Aminomethyl)-4-[3-(trifluoromethyl)phenyl]-1-piperidyl]-2-[4-(2-pyrazinyl)-1-piperazinyl]-1-ethanone] | 152 to 153 °C

The remaining lines, values ahead:

Row | melting point | SMILES
5 | 118 °C | CN(C)CC1(c2cccc(C(F)(F)F)c2)CCN(C(=O)CN2CCN(c3cnccn3)CC2)CC1 [Compound No. 33, 1-[4-[(Dimethylamino)methyl]-4-[3-(trifluoromethyl)phenyl]-1-piperidyl]-2-[4-(2-pyrazinyl)-1-piperazinyl]-1-ethanone]
6 | 138 to 139 °C | NCC1(c2cccc(Cl)c2)CCN(C(=O)CN2CCN(c3cnccn3)CC2)CC1 [Compound No. 65, 1-[4-(Aminomethyl)-4-(3-chlorophenyl)-1-piperidyl]-2-[4-(2-pyrazinyl)-1-piperazinyl]-1-ethanone]
7 | 137 to 139 °C | CNCC1(c2cccc(C(F)(F)F)c2)CCN(C(=O)CN2CCN(c3cnccn3)CC2)CC1 [Compound No. 57, 1-[4-[(Methylamino)methyl]-4-[3-(trifluoromethyl)phenyl]-1-piperidyl]-2-[4-(2-pyrazinyl)-1-piperazinyl]-1-ethanone]
8 | 223 °C | O=C(CN1CCN(c2cnccn2)CC1)N1CCC(CO)(c2cccc(C(F)(F)F)c2)CC1 [Compound No. 32, 1-[4-(Hydroxymethyl)-4-[3-(trifluoromethyl)phenyl]-1-piperidyl]-2-[4-(2-pyrazinyl)-1-piperazinyl]-1-ethanone]
